Experiments:
C57bl/6J female mice [1] = assay: Supplementation with L. reuteri (daily gavage) with or without risperidone in drinking water: body mass and visceral fat pads; assay type: in vivo; conditions: risperidone-treated mice, 64 days, relative to risperidone plus L. reuteri lacking reutericyclin production; Wilcoxon p<0.05
C57bl/6J female mice [2] = assay: Risperidone treatment for 60 days, weight gain in mice; assay type: in vivo; conditions: risperidone for 60 days, vs control
Method: Shotgun metagenomic sequencing data (MiSeq, 2×250, high yield) from stool DNA were analyzed on the Anvi'o visualization platform. Bacterial genomes were refined to either genus or species level and ordered as slices within a ring by gene similarity (hierarchical clustering with a Hidden Markov Model).

gut microbiome = conditions: risperidone; cited from earlier work

SMILES	weight gain (body mass increase) (C57bl/6J female mice [1])	weight gain (C57bl/6J female mice [2])	growth of organisms under anaerobic conditions (gut microbiome)
CCCCCCC/C=C/C(=O)N1C(O)=C(C(C)=O)C(=O)[C@H]1CC(C)C [reutericyclin, (5R)-1-(2-decenoyl)-2-hydroxy-3-acetyl-5-isobutyl-Δ2-pyrroline-4-one]	prevents weight gain	–	–
Cc1nc2n(c(=O)c1CCN1CCC(c3noc4cc(F)ccc34)CC1)CCCC2 [risperidone]	–	statistically significant weight gain	selectively suppressed growth of organisms under anaerobic conditions

— patent US11116748B2, “Compositions and methods for reducing weight gain” (THE MEDICAL COLLEGE OF WISCONSIN, INC., priority 2018, dated 2021)
